Data reported in PMC11852993, “Discovery of small molecules against porcine reproductive and respiratory syndrome virus replication by targeting NendoU activity” (Journal of Virology, 2024).
Where two headings read alike, the source gives them in different places.

How the values were obtained:
VR-NSP11 [1] = target: T1, VR-NSP11 (PRRSV VR2332, UniProt Q9WJB2); assay: microscale thermophoresis; type: binding
T1 construct: gene rep; mature NSP11 cut from replicase polyprotein 1ab (ORF1b part); N-terminal 6xHN tag (pET6xHN-N), expressed in E. coli BL21(DE3), TALON purified
Excerpt: microscale thermophoresis on VR-NSP11 | The MST analysis confirmed a direct interaction between VR-NSP11 and both compounds

VR-NSP11 [2] = target: T1, VR-NSP11; assay: FRET NendoU assay (6-FAM/BHQ-1 RNA R23.[…]); type: biochemical

T1 sequence (Q9WJB2 3585-3807): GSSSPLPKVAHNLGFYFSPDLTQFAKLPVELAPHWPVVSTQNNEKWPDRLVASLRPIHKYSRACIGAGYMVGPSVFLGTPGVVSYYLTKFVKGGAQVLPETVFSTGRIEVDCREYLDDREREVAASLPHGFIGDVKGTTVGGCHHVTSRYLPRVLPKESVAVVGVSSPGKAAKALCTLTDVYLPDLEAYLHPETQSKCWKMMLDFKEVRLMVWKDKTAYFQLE

SMILES	Kd (VR-NSP11 [1])	IC50 (VR-NSP11 [2]; read-out: IC50)	IC50 (VR-NSP11 [2]; fluorescence at 2 h, 1 µM R23.1, HEPES pH 7.5, 50 mM KCl, 1 mM DTT, 25 °C, 1.2 µM enzyme)
CCc1c(C)nc(Nc2nc(C)c3ccc(OC)cc3n2)nc1O [A8-A2]	23 µM	24.6 µM	–
COc1ccc2c(C)nc(Nc3nc(C)c(C)c(=O)[nH]3)nc2c1 [Madrasin]	–	–	these IC50 values are higher than those of C5 and Madrasin
